# Results: patent US20180118588A1, “CONTROL OF BACTERIAL ACTIVITY, SUCH AS IN SEWERS AND WASTEWATER TREATMENT SYSTEMS” (THE UNIVERSITY OF QUEENSLAND, priority 2010, published 2018)
# Like-named read-outs stand apart in the source and are kept apart here.
# Tests used:
# [1] = system: sulfate reducing bacteria (SRB) in sewer biofilm; settings: Exp. III
# Excerpt: (§1) Experiment III aimed to achieve complete inhibition on both sulfide and methane production.
# [2] = system: methanogenic archaea (MA) in sewer biofilm; settings: Exp. III
# Excerpt: as §1
# [3] = system: sewer biofilm cells; settings: Exp. III; FNA dosed in the reactors
# Excerpt: as §1
# [4] = system: sulfate reducing bacteria (SRB) in sewer biofilm; settings: Exp. IV
# [5] = system: methanogenic archaea (MA) in sewer biofilm; settings: Exp. II
# [6] = system: anaerobic sewer biofilms; test: Viability tests with biofilms on carriers from rising main sewer reactors (cell killing capacity, Table 2, FIG. 7-9); assay type: cell-based; settings: for Inactivation of biofilm cells: agent by itself
# Procedure: In these experiments, viability tests were carried out with biofilms on carriers from rising main sewer reactors. […]
# [7] = system: sulfate reducing bacteria (SRB) in sewer biofilm; settings: Exp. II
# [8] = system: methanogenic archaea (MA) in sewer biofilm; settings: Exp. IV
# [9] = system: sulfate reducing bacteria (SRB) in sewer biofilm; settings: Exp. I
# [10] = system: methanogenic archaea (MA) in sewer biofilm; settings: Exp. I
# [11] = FNA 0.18 and 0.36 mg-N/L, 24 hours, 4 dosages
# [12] = one month after stopping FNA dosage
# [13] = FNA 0.05, 0.08, 0.17 mg-N/L, single dose, 6 hour, pH 6.2
# [14] = in the presence of nitrite, continuous dosing 24 days
# [15] = nitrite 20 mg-N/L every 30 minutes for 24 days, pH 8.6~9.2 after dosing
smiles,measurement,setting,value
"O=NO [FNA, free nitrous acid]",Inhibition: sulfide production,[1]; [11],Negligible sulfide
same,Recovery SRB,[1]; in two months,SRB: 70-80% in
same,SRB recovery,[1]; [12],about 70%
same,Inhibition: methane production,[2]; [11],Negligible sulfide
same,Recovery MA,[2]; in two months,MA: 40~60%
same,Methanogens activity recovery,[2]; [12],20%
same,Cells in the biofilm killed (FIG. 4B),[3],over 90%
same,Sulfide production,[4]; Day 14,zero production
same,"Sulfide production, of the initial level",[4]; after 7 days,50%
same,Recovery SRB,[4]; in three weeks,SRB: 100% in
same,Inhibition: methane production,[5]; [13],Negligible sulfide
same,Recovery MA,[5]; after 1 month,MA: 30~50%.
same,Methane after the FNA dosing,"[5]; all FNA concentrations, 6 hour contact",below 20%
same,Inactivation of biofilm cells,[6],significantly inactivating biofilm cells
same,"Microbial killing, ranking (FIG. 7)","[6]; nitrite 100 mgN/L, pH 6, FNA 0.26 mgN/L, 6 hr, H2O2 30 mg/L, O2 6 mg/L, caustic pH 10.5 for 2 hr after FNA","followed by FNA→Caustic, FNA+O2, and FNA"
same,Inhibition: sulfide production,[7]; [13],Negligible sulfide
same,Time to recover to 50% (SRB),"[7]; R4, highest FNA (0.17 mg-N/L), 6 hour contact",16 days
same,Recovery SRB,[7]; after 1 month,SRB: 90%;
same,Methane production by sewer biofilm,"[8]; one month after terminating dosage, 828 m downstream vs wet well",ceased to produce methane
same,Inhibition: methane production,"[8]; real sewer, nitrite 100 mgN/L, pH 6.0, FNA 0.24 mgN/L, 33 hours over three days",Negligible sulfide
"OO [H2O2, hydrogen peroxide, reference compound]",Effect on biocidal effect of acidified nitrite,"[6]; H2O2 30 mg/L with nitrite 100 mgN/L at pH 6, 6 hr",enhanced the biocidal effect of acidified nitrite
"[Na+].[OH-] [caustic shock, caustic soda, reference compound]",Inactivation of biofilm cells,[6],significantly inactivating biofilm cells
O=NO [nitrite],Sulfide accumulation in the reactor,[9]; [14],No sulfide and methane accumulation
same,Residual activity after treatment: SRB,[9]; [15],SRB: 1 mg-S/L- mg-S/L-hr
same,Methane accumulation in the reactor,[10]; [14],No sulfide and methane accumulation
same,Residual activity after treatment: MA,[10]; [15],MA: 0.1 mg- mg-COD/L-hr
